In ChEMBL document CHEMBL1201862, “PubChem BioAssay data set” (2004):
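Each compound was tested at five concentrations against cells in 96-well plates for 48 hours. Here, GI50 denotes the concentration required for 50% inhibition of growth.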 Calls of active or inactive are those of the source. No stated cut-off is given here; in the data, active = GI50 up to about 1.1 µM and inactive = higher.

Columns and labels:
Assay in all cases: NCI anticancer screen, dose series, 48 h
[1] = tested on: CAKI-1
[2] = tested on: OVCAR-5
[3] = tested on: MOLT-4
[4] = tested on: SK-OV-3
[5] = tested on: A498
[6] = tested on: HT-29
[7] = tested on: TK-10
[8] = tested on: NCI-H522
[9] = tested on: SNB-75
[10] = tested on: IGROV-1
[11] = tested on: NCI-H460
[12] = tested on: SW-620
[13] = tested on: OVCAR-3
[14] = tested on: LOX IMVI
[15] = tested on: K562
[16] = tested on: SK-MEL-5
[17] = tested on: HCC 2998
[18] = tested on: M14
[19] = tested on: OVCAR-4
[20] = tested on: SN12C

SMILES	GI50 [1]	GI50 [2]	GI50 [3]	GI50 [4]	GI50 [5]	GI50 [6]	GI50 [7]	GI50 [8]	GI50 [9]	GI50 [10]	GI50 [11]	GI50 [12]	GI50 [13]	GI50 [14]	GI50 [15]	GI50 [16]	GI50 [17]	GI50 [18]	GI50 [19]	GI50 [20]
CC(C(=O)NCCNC(=O)CCC(=O)N(C)O)C(=O)NCCNC(=O)CCC(=O)N(C)O	> 100 µM (inactive)	> 100 µM (inactive)	> 100 µM (inactive)	> 100 µM (inactive)	> 100 µM (inactive)	> 100 µM (inactive)	> 100 µM (inactive)	> 100 µM (inactive)	> 100 µM (inactive)	> 100 µM (inactive)	> 100 µM (inactive)	> 100 µM (inactive)	> 100 µM (inactive)	> 100 µM (inactive)	> 100 µM (inactive)	97.9 µM (inactive)	> 100 µM (inactive)	> 100 µM (inactive)	> 100 µM (inactive)	–
S=P1(N2CCCCC2)Oc2ccc3ccccc3c2-c2c(ccc3ccccc23)O1	> 44.6 µM (inactive)	> 100 µM (inactive)	> 100 µM (inactive)	> 92.5 µM (inactive)	> 35.2 µM (inactive)	> 76.2 µM (inactive)	–	37.8 µM (inactive)	31.8 µM (inactive)	> 100 µM (inactive)	33.6 µM (inactive)	> 100 µM (inactive)	34.9 µM (inactive)	60.4 µM (inactive)	85.7 µM (inactive)	> 71.4 µM (inactive)	> 100 µM (inactive)	–	27.5 µM (inactive)	> 100 µM (inactive)
C=C1CC(C)(COc2ccc3c(C)c(C)c(=O)oc3c2C)OC1=O (configuration not stated)	1.7 µM (inactive)	6.27 µM (inactive)	1.08 µM (active)	3.05 µM (inactive)	2.22 µM (inactive)	2.17 µM (inactive)	1.15 µM (inactive)	1.56 µM (inactive)	3.66 µM (inactive)	1.63 µM (inactive)	5.33 µM (inactive)	1.29 µM (inactive)	3.3 µM (inactive)	1.2 µM (inactive)	0.811 µM (active)	1.68 µM (inactive)	1.76 µM (inactive)	2.56 µM (inactive)	4.3 µM (inactive)	2.04 µM (inactive)
C(=C/c1nc2ccccc2o1)/c1ccc2c(c1)OCO2	9.82 µM (inactive)	> 36.6 µM (inactive)	45.7 µM (inactive)	27.2 µM (inactive)	21.8 µM (inactive)	12.8 µM (inactive)	–	7.74 µM (inactive)	21.1 µM (inactive)	16.1 µM (inactive)	21.2 µM (inactive)	16.7 µM (inactive)	12.1 µM (inactive)	6.59 µM (inactive)	5.22 µM (inactive)	8.41 µM (inactive)	6.32 µM (inactive)	–	13.1 µM (inactive)	58.6 µM (inactive)
COC(=O)Cc1c([C@H]2[C@H](CC(=O)OC)c3ccccc3N2C(=O)C(F)(F)F)[nH]c2ccccc12	41.3 µM (inactive)	18.9 µM (inactive)	9.02 µM (inactive)	28.5 µM (inactive)	90.2 µM (inactive)	29.3 µM (inactive)	51.4 µM (inactive)	12 µM (inactive)	29.2 µM (inactive)	2.83 µM (inactive)	22.4 µM (inactive)	32.4 µM (inactive)	15.9 µM (inactive)	26.4 µM (inactive)	11.1 µM (inactive)	11.6 µM (inactive)	32.1 µM (inactive)	–	56.6 µM (inactive)	46.1 µM (inactive)
C[C@]12CC[C@H](OC3CCCCO3)CC1=CC[C@@H]1C2CC[C@]2(C)/C(=N/OCCC#N)CCC12 (some centres not stated)	45.8 µM (inactive)	–	–	37.5 µM (inactive)	> 100 µM (inactive)	2.17 µM (inactive)	24 µM (inactive)	18.5 µM (inactive)	20.3 µM (inactive)	> 100 µM (inactive)	15.2 µM (inactive)	> 100 µM (inactive)	68.7 µM (inactive)	6.38 µM (inactive)	6.95 µM (inactive)	7.74 µM (inactive)	> 100 µM (inactive)	> 100 µM (inactive)	18.9 µM (inactive)	64.7 µM (inactive)
CCOc1ccc(NC(=O)C(=O)CC(=O)c2c(C)[n+]([O-])c3ccccc3[n+]2[O-])cc1	> 100 µM (inactive)	> 100 µM (inactive)	81.5 µM (inactive)	> 100 µM (inactive)	> 100 µM (inactive)	> 100 µM (inactive)	> 100 µM (inactive)	> 100 µM (inactive)	> 100 µM (inactive)	> 100 µM (inactive)	> 100 µM (inactive)	> 100 µM (inactive)	> 100 µM (inactive)	> 100 µM (inactive)	> 100 µM (inactive)	> 100 µM (inactive)	> 100 µM (inactive)	> 100 µM (inactive)	> 100 µM (inactive)	> 100 µM (inactive)
